# Molecular target: T1, ATM (Homo sapiens, UniProt Q13315)
# T1 construct: detecting phosphorylation of Chk2 in a human non-small cell lung cancer cell line NCI-H460 (ATCC company); host or cells: NCI-H460 human non-small cell lung cancer cells
# Assay: ATM inhibition test (phosphorylation of Chk2 generated by ionizing radiation, AlphaScreen SureFire)
# Format: cell-based
# Details: phosphorylated Chk2 in NCI-H460 cells, ionizing radiation 8Gy, 1 hour after test compound treatment; read-out: ATM inhibitory activity
# Summary of the method: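 NCI-H460 cells treated with compound for 1 hour, then irradiated with 8Gy and incubated 1 hour at 37° C. Phospho-Chk2 measured by AlphaScreen SureFire. Inhibition ratio calculated relative to untreated irradiated and non-irradiated wells.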
# T1 sequence (Q13315 whole entry): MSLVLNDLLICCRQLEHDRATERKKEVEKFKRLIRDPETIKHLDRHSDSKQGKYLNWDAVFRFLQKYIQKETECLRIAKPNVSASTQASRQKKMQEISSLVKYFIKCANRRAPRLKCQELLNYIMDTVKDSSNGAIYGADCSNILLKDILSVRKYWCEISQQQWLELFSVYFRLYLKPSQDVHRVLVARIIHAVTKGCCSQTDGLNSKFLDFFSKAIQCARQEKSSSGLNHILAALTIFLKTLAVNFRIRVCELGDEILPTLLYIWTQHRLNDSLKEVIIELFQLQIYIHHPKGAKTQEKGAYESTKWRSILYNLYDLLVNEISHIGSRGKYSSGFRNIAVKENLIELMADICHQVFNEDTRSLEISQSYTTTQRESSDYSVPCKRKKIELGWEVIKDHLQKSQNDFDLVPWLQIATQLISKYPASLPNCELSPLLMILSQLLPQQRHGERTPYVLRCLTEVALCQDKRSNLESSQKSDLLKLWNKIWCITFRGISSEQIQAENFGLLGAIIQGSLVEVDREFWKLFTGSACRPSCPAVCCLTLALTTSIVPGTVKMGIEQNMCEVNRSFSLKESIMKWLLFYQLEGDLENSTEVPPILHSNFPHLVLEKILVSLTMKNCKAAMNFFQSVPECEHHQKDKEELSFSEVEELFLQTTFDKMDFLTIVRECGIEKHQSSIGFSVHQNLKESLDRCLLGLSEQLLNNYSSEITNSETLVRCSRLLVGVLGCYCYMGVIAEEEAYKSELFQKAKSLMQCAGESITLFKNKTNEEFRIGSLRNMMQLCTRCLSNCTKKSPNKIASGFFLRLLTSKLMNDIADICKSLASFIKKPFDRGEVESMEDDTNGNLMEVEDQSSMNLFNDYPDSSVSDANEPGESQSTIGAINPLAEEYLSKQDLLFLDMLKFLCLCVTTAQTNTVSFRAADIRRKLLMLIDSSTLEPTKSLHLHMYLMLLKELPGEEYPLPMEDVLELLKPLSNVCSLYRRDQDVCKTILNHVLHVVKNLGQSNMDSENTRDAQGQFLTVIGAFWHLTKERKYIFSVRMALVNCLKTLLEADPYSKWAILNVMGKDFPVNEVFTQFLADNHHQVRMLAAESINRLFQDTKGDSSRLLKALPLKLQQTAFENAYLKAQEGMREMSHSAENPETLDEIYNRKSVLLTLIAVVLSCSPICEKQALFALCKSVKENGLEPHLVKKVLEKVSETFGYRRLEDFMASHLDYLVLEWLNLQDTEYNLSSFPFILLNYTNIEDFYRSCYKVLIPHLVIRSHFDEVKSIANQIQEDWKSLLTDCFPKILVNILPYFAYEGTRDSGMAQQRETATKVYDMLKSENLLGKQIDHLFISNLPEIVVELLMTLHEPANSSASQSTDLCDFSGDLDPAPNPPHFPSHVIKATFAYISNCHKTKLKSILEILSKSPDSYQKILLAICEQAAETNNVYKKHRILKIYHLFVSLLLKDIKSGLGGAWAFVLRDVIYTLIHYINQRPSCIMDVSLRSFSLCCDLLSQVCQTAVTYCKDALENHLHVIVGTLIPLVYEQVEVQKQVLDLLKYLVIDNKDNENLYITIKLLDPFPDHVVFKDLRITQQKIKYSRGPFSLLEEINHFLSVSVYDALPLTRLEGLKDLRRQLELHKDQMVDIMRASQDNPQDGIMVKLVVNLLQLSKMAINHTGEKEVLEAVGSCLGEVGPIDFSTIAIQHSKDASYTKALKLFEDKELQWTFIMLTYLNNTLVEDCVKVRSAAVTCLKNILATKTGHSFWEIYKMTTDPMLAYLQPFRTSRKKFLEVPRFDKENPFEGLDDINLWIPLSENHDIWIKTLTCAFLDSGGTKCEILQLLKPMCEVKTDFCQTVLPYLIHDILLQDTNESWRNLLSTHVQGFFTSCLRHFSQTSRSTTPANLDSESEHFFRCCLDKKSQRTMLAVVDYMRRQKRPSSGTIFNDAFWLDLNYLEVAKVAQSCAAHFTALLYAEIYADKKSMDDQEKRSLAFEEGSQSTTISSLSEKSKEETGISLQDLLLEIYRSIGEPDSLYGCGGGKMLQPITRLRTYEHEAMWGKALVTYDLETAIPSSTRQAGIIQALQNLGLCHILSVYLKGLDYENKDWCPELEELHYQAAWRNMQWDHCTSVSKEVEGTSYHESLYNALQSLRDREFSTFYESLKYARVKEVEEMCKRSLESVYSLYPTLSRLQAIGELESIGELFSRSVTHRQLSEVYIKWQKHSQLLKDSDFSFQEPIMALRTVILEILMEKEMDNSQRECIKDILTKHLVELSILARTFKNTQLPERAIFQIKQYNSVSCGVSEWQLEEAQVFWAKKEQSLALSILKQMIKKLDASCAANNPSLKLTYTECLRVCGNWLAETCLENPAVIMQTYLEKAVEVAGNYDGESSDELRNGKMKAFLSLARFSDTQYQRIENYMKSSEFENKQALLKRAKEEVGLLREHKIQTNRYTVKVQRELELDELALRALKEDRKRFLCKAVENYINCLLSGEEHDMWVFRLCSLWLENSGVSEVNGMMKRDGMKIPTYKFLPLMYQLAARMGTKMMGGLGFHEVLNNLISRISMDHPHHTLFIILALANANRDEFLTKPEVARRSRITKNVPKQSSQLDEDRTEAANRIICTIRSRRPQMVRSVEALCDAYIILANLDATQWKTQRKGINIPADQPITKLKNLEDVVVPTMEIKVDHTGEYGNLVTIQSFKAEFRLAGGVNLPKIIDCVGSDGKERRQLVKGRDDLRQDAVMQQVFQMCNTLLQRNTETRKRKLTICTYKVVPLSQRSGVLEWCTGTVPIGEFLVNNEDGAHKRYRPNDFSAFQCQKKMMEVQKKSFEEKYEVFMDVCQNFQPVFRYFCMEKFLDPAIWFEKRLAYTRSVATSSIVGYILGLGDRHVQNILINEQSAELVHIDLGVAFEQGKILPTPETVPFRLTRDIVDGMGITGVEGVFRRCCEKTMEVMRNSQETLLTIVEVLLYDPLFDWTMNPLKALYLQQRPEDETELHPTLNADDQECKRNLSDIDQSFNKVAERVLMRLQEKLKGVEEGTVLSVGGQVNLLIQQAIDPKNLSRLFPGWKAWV
row,IC50 [nM],Compound
1,< 100,"Cc1ccnc(C(C)Nc2ccc3c(c2)Cc2cccc(-c4cc(N5CCOCC5)cc(=O)[nH]4)c2O3)c1 (single isomer, unassigned) [Example 2-14-93-2, 6-(7-((1-(4-methylpyridin-2-yl)ethyl)amino)-9H-xanthen-4-yl)-4-morpholinopyridin-2(1H)-one]"
2,100 to 500,"Cc1ccncc1CNc1ccc2c(c1)Sc1cccc(-c3cc(N4CCOCC4)cc(=O)[nH]3)c1O2 [Example 4-4-19, 6-(8-(((4-Methylpyridin-3-yl)methyl)amino)phenoxathiin-4-yl)-4-morpholino pyridin-2(1H)-one]"
3,500 to 2000,"Cc1ccc(CNc2ccc3c(c2)Cc2cccc(-c4cc(N5CCOCC5)cc(=O)[nH]4)c2O3)s1 [Example 2-14-40, 6-(7-(((5-Methylthiophen-2-yl)methyl)amino)-9H-xanthen-4-yl)-4-morpholino pyridin-2(1H)-one]"
4,100 to 500,"Cc1ccnc(C(CF)Nc2ccc3c(c2)Cc2cccc(-c4cc(N5CCOCC5)cc(=O)[nH]4)c2O3)n1 (centres unmarked) [Example 2-14-81, 6-(7-((2-Fluoro-1-(4-methylpyrimidin-2-yl)ethyl)amino)-9H-xanthen-4-yl)-4-morpholino pyridin-2(1H)-one]"
5,100 to 500,"O=c1cc(N2CCOCC2)cc(-c2cccc3c2Oc2ccc(NCc4cccc(C(F)(F)F)c4)cc2C3)[nH]1 [Example 2-3-14, 4-Morpholino-6-(7-((3-(trifluoromethyl)benzyl)amino)-9H-xanthen-4-yl) pyridin-2(1H)-one]"
6,100 to 500,"Cc1cc(C(C)Nc2ccc3c(c2)Cc2cccc(-c4cc(N5CCOCC5)cc(=O)[nH]4)c2O3)ncn1 (centres unmarked) [Example 2-14-52, 6-(7-((1-(6-Methylpyrimidin-4-yl)ethyl)amino)-9H-xanthen-4-yl)-4-morpholino pyridin-2 (1H)-one]"
7,500 to 2000,"CN1CCC(Nc2ccc3c(c2)Cc2cccc(-c4cc(N5CCOCC5)cc(=O)[nH]4)c2O3)CC1 [Example 2-3-7, 6-(7-((1-Methylpiperidin-4-yl)amino)-9H-xanthen-4-yl)-4-morpholino pyridin-2(1H)-one]"
8,100 to 500,"CCC(Nc1ccc2c(c1)Sc1cccc(-c3cc(N4CCOCC4)cc(=O)[nH]3)c1O2)c1cncc(OC)c1 (centres unmarked) [Example 4-4-27, 6-(8-((1-(5-Methoxypyridin-3-yl)propyl)amino)phenoxathiin-4-yl)-4-morpholino pyridin-2(1 H)-one]"
9,100 to 500,"Cc1cncc(C(C)Nc2ccc3c(c2)Cc2cccc(-c4cc(N5CCOCC5)cc(=O)[nH]4)c2O3)c1 (single isomer, unassigned) [Example 2-14-88-2, 6-(7-((1-(5-methylpyridin-3-yl)ethyl)amino)-9H-xanthen-4-yl)-4-morpholinopyridin-2(1H)-one]"
10,500 to 2000,"COCCCN1CCC(Nc2ccc3c(c2)Cc2cccc(-c4cc(N5CCOCC5)cc(=O)[nH]4)c2O3)CC1 [Example 2-30-15, 6-(7-((1-(3-Methoxypropyl)piperidin-4-yl)amino)-9H-xanthen-4-yl)-4-morpholino pyridin-2 (1H)-one]"
11,< 100,"COc1cc(C(C)Nc2ccc3c(c2)Cc2cccc(-c4cc(N5CCOCC5)cc(=O)[nH]4)c2O3)ccn1 (centres unmarked) [Example 2-14-26, 6-(7-((1-(2-Methoxypyridin-4-yl)ethyl)amino)-9H-xanthen-4-yl)-4-morpholino pyridin-2(1H)-one]"
12,100 to 500,"CCCC(Nc1ccc2c(c1)Sc1cccc(-c3cc(N4CCOCC4)cc(=O)[nH]3)c1O2)c1cncc(OC)c1 (centres unmarked) [Example 4-4-26, 6-(8-((1-(5-Methoxypyridin-3-yl)butyl)amino)phenoxathiin-4-yl)-4-morpholino pyridin-2(1H)-one]"
13,500 to 2000,"Cc1ccnc(C(CO)Nc2ccc3c(c2)Cc2cccc(-c4cc(N5CCOCC5)cc(=O)[nH]4)c2O3)n1 (centres unmarked) [Example 2-14-82, 6-(7-((2-Hydroxy-1-(4-methylpyrimidin-2-yl)ethyl)amino)-9H-xanthen-4-yl)-4-morpholino pyridin-2(1H)-one]"
14,100 to 500,"CCOC(=O)CNc1ccc2c(c1)Cc1cccc(-c3cc(N4CCOCC4)cc(=O)[nH]3)c1O2 [Example 2-14-71, Ethyl 2-((5-(4-morpholino-6-oxo-1,6-dihydropyridin-2-yl)-9H-xanthen-2-yl)amino) acetate]"

# Continued, compound first:
row,Compound,IC50 [nM]
1,"COC[C@@H](Nc1ccc2c(c1)Sc1cccc(-c3cc(N4CCOCC4)cc(=O)[nH]3)c1S2)C(=O)O [Example 1-49, (R)-3-methoxy-2-((6-(4-morpholino-6-oxo-1,6-dihydropyridin-2-yl)thianthren-2-yl)amino)propionic acid]",500 to 2000
2,"O=c1cc(N2CCOCC2)cc(-c2cccc3c2Sc2ccc(NC4CCN(C5CCCC5)C4)cc2S3)[nH]1 (centres unmarked) [Example 1-24-12, 6-(7-((1-Cyclopentylpyrrolidin-3-yl)amino)thianthren-1-yl)-4-morpholino pyridin-2(1H)-one]",100 to 500
3,"Cc1cnc(C(CCN2CCN(C)CC2)Nc2ccc3c(c2)Sc2cccc(-c4cc(N5CCOCC5)cc(=O)[nH]4)c2S3)cn1 (single isomer, unassigned) [Example 10-3-2, 6-(7-((3-(4-Methylpiperazin-1-yl)-1-(5-methylpyrazin-2-yl)propyl)amino)thianthren-1-yl)-4-rnorpholino pyridin-2 (1H)-one]",< 100
4,"Cc1cnc(C(CCN(C)CCO)Nc2ccc3c(c2)Sc2cccc(-c4cc(N5CCOCC5)cc(=O)[nH]4)c2S3)cn1 (single isomer, unassigned) [Example 10-4-2, 6-(7-((3-((2-Hydroxyethyl)(methyl)amino)-1-(5-methylpyrazin-2-yl)propyl)amino)thianthren-1-yl)-4-morpholinopyridin-2(1H)-one]",100 to 500
5,"CC(CN1CC(C)OC(C)C1)Nc1ccc2c(c1)Sc1cccc(-c3cc(N4CCOCC4)cc(=O)[nH]3)c1S2 (centres unmarked) [Example 1-13-11, 6-(7-((1-(2,6-Dimethylmorpholino)propan-2-yl)amino)thianthren-1-yl)-4-morpholino pyridin-2(1H)-one]",< 100
6,"Cc1cnc(C(CCN2CCC2)Nc2ccc3c(c2)Sc2cccc(-c4cc(N5CCOCC5)cc(=O)[nH]4)c2S3)cn1 (single isomer, unassigned) [Example 1-51-11, 6-(7-((3-(Azetidin-1-yl)-1-(5-methylpyrazin-2-yl)propyl)amino)thianthren-1-yl)-4-morpholino pyridin-2(1H)-one]",< 100
7,"[N-]=[N+]=NCC(CN1CCOCC1)Nc1ccc2c(c1)Sc1cccc(-c3cc(N4CCOCC4)cc(=O)[nH]3)c1S2 (centres unmarked) [Example 9-1, 6-(7-((1-azide-3-morpholinopropan-2-yl)amino)thianthren-1-yl)-4-morpholinopyridin-2(1H)-one]",100 to 500
8,"O=c1cc(N2CCOCC2)cc(-c2cccc3c2Sc2ccc(NCc4cscn4)cc2S3)[nH]1 [Example 1-12-53, 4-Morpholino-6-(7-((thiazol-4-ylmethyl)amino)thianthren-1-yl)pyridin-2 (1H)-one]",100 to 500
9,"Nc1ccc2c(c1)Sc1cccc(-c3cc(N4CCOCC4)cc(=O)[nH]3)c1O2 [Example 4-2, 6-(8-Aminophenoxathiin-4-yl)-4-morpholinopyridin-2(1H)-one]",100 to 500
10,"O=c1cc(N2CCOCC2)cc(-c2cccc3c2Oc2ccc(NC4CCN(Cc5ccc(C(F)(F)F)nc5)CC4)cc2C3)[nH]1 [Example 2-28-15, 4-Morpholino-6-(7-((1-((6-(trifluoromethyl)pyridin-3-yl)methyl)piperidin-4-yl)amino)-9H-xanthen-4-yl) pyridin-2(1H)-one]",500 to 2000
11,"O=c1cc(N2CCOCC2)cc(-c2ccc(F)c3c2Oc2ccc(NCc4cc(C5CC5)ccn4)cc2C3)[nH]1 [Example 2-44-2, 6-(7-(((4-Cyclopropylpyridin-2-yl)methyl)amino)-1-fluoro-9H-xanthen-4-yl)-4-morpholinopyridin-2(1H)-one]",100 to 500
12,"N#Cc1ccc(CCN2CCC(Nc3ccc4c(c3)Cc3cccc(-c5cc(N6CCOCC6)cc(=O)[nH]5)c3O4)CC2)cc1 [Example 2-30-19, 4-(2-(4-((5-(4-Morpholino-6-oxo-1,6-dihydropyridin-2-yl)-9H-xanthen-2-yl)amino)piperidin-1-yl)ethyl) benzonitrile]",500 to 2000
13,"CC(CCN1CCN(C)CC1)Nc1ccc2c(c1)Sc1cccc(-c3cc(N4CCOCC4)cc(=O)[nH]3)c1S2 (centres unmarked) [Example 1-42-2, 6-(7-((4-(4-Methylpiperazin-1-yl)butan-2-yl)amino)thianthren-1-yl)-4-morpholino pyridin-2(1H)-one]",100 to 500
14,"COC1CN(CCC(Nc2ccc3c(c2)Sc2cccc(-c4cc(N5CCOCC5)cc(=O)[nH]4)c2S3)c2ccc(C)cn2)C1 (single isomer, unassigned) [Example 1-51-8, 6-(7-((3-(3-Methoxyazetidin-1-yl)-1-(5-methylpyridin-2-yl)propyl)amino)thianthren-1-yl)-4-morpholino pyridin-2 (1H)-one]",< 100
15,"CC(C)(CN1CCOCC1)Nc1ccc2c(c1)Sc1cccc(-c3cc(N4CCOCC4)cc(=O)[nH]3)c1S2 [Example 1-46-2, 6-(7-((2-methyl-1-morpholinopropan-2-yl)amino)thianthren-1-yl)-4-morpholinopyridin-2(1H)-one]",100 to 500
16,"Cc1ccc(C(Nc2ccc3c(c2)Sc2cccc(-c4cc(N5CCOCC5)cc(=O)[nH]4)c2S3)[C@H]2CN(C)CCO2)nc1 (single isomer, unassigned) [Example 1-56-12]",< 100
17,"Cc1cnc(C(CCN(C)C)Nc2ccc3c(c2)Sc2cccc(-c4cc(=O)cc(N5CCOCC5)o4)c2O3)cn1 (single isomer, unassigned) [Example 10-9, 2-(8-((3-(Dimethylamino)-1-(5-methylpyrazin-2-yl)propyl)amino)phenoxathiin-4-yl)-6-morpholino-4H-pyran-4-one]",< 100
18,"O=c1cc(N2CCOCC2)cc(-c2cccc3c2Oc2ccc(NC4CCN(Cc5cccc(C6CC6)n5)CC4)cc2C3)[nH]1 [Example 2-28-31, 6-(7-((1-((6-Cyclopropylpyridin-2-yl)methyl)piperidin-4-yl)amino)-9H-xanthen-4-yl)-4-morpholino pyridin-2(1H)-one]",100 to 500

# Reference: patent US9586951B2 (FUJIFILM Corporation, priority 2013, dated 2017)
